The record followed here is ChEMBL document CHEMBL3526034 (Drug Metab Dispos, 2013).

The subject of data set [1] is Liver microsome. In words: Drug level in human liver microsomes treated with [14C]DTG at 5 uM after 120 mins by radio-HPLC analysis. The data set is classed as ADME. The following applies: 2 h.
Data set [2] in a line: Drug level in human urine treated with parent drug [14C]DTG at 20 mg, po. The data set is classed as ADME, tissue-based. The following applies: in vivo.
Data set [3] deals with T1, UDP-glucuronosyltransferase 1A1 (Homo sapiens, UniProt P22309).
T1 sequence (P22309 whole entry): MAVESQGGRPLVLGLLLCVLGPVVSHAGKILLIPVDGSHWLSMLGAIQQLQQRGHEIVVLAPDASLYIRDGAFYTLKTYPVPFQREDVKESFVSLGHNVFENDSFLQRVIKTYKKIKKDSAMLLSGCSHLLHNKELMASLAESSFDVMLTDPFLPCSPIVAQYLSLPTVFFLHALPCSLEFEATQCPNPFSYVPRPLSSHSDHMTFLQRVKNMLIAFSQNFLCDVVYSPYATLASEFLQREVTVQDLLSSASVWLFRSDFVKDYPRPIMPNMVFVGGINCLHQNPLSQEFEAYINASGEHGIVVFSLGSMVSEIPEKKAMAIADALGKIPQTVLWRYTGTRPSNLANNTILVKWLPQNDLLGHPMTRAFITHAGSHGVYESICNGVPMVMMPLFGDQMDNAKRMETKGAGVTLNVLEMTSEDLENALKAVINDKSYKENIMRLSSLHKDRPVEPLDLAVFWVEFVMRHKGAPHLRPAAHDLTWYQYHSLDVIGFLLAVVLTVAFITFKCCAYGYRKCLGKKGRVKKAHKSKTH
In words: Drug level assessed as UDPGA-fortified human recombinant UGT1A1-mediated compound formation treated with [14C]DTG at 16 uM after 120 mins by radio-HPLC analysis. The conditions noted are these: recombinant enzyme, 2 h. The data set is classed as ADME.

Another data set concerns Hepatocyte. In words: Drug level in human hepatocytes treated with [14C]DTG at 50 uM after 4 to 20 hrs by radio-HPLC analysis. The data set is classed as ADME, cell-based.
For data set [4], the system named is Liver microsome. In words: Drug level in UDPGA-fortified human liver microsomes treated with [14C]DTG at 16 uM treated for 4 hrs by radio-HPLC analysis. The data set is classed as ADME.
Data set [5] deals with UDP-glucuronosyltransferase 1A3 (Homo sapiens, UniProt P35503). In words: Drug level assessed as UDPGA-fortified human recombinant UGT1A3-mediated compound formation treated with [14C]DTG at 16 uM after 120 mins by radio-HPLC analysis. The data set is classed as ADME. The following applies: recombinant enzyme, 2 h.
For data set [6], the target named is UDP-glucuronosyltransferase 1A9 (Homo sapiens, UniProt O60656). In words: Drug level assessed as UDPGA-fortified human recombinant UGT1A9-mediated compound formation treated with [14C]DTG at 16 uM after 120 mins by radio-HPLC analysis. The data set is classed as ADME. The conditions noted are these: recombinant enzyme, 2 h.
In a further data set the target is Cytochrome P450 3A4 (Homo sapiens, UniProt P08684). In words: Drug level in supersomes expressing human recombinant CYP3A4 treated with [14C]DTG at 5 uM after 120 mins by radio-HPLC analysis. The data set is classed as ADME. The following applies: recombinant enzyme, 2 h.
Substrate in data set [7]: C[C@@H]1CCO[C@H]2Cn3cc(C(=O)NCc4ccc(F)cc4F)c(=O)c(O)c3C(=O)N12
In words: Drug metabolism assessed as human recombinant UGT1A1-mediated DTG glucuronide M2 ((2S,3S,4S,5R,6S)-6-((4R,12aS)-9-(2,4-difluorobenzylcarbamoyl)-4-methyl-6,8-dioxo-3,4,6,8,12,12a-hexahydro-2H-[1,3]oxazino[3,2-d]pyrido[1,2-a]pyrazin-7-yloxy)-3,4,5-trihydroxytetrahydro-2H-pyran-2-carboxylic acid) formation after 120 mins by radio-HPLC analysis. The data set is classed as ADME.

Substrate in data set [8]: C[C@@H]1CCO[C@H]2Cn3cc(C(=O)NCc4ccc(F)cc4F)c(=O)c(O)c3C(=O)N12
In words: Drug metabolism in UDPGA-fortified human liver microsomes assessed as UGT1A1-mediated DTG glucuronide M2 ((2S,3S,4S,5R,6S)-6-((4R,12aS)-9-(2,4-difluorobenzylcarbamoyl)-4-methyl-6,8-dioxo-3,4,6,8,12,12a-hexahydro-2H-[1,3]oxazino[3,2-d]pyrido[1,2-a]pyrazin-7-yloxy)-3,4,5-trihydroxytetrahydro-2H-pyran-2-carboxylic acid) formation after 120 mins by radio-HPLC analysis. The data set is classed as ADME.

Chain of Cytochrome P450 3A4 (P08684 whole entry): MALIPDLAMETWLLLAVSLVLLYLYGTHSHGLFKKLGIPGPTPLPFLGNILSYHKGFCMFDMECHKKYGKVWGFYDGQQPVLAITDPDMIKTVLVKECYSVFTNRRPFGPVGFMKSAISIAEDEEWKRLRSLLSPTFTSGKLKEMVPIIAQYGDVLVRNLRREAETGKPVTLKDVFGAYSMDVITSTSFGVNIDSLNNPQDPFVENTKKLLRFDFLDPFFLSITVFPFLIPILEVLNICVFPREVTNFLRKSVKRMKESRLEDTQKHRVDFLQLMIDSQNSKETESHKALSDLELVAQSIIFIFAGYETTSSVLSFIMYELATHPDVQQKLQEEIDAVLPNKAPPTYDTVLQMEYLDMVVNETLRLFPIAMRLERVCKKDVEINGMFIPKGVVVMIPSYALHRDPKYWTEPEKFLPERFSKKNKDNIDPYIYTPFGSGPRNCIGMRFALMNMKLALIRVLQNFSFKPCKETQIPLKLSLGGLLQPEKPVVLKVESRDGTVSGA
Chain of UDP-glucuronosyltransferase 1A3 (P35503 whole entry): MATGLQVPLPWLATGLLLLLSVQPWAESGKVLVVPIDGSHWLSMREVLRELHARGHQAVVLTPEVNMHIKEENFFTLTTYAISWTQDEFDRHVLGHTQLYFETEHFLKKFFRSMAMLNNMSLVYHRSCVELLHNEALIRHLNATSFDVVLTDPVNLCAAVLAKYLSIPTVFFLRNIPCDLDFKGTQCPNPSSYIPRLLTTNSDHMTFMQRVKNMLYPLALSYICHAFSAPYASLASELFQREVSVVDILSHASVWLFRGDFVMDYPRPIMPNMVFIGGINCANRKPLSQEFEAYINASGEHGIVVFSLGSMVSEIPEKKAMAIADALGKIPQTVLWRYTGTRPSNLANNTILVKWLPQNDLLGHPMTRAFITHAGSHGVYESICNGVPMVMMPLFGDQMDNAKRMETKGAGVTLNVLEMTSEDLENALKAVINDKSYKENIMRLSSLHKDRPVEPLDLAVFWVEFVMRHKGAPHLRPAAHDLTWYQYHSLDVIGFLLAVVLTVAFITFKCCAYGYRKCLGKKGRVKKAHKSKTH
Chain of UDP-glucuronosyltransferase 1A9 (O60656 whole entry): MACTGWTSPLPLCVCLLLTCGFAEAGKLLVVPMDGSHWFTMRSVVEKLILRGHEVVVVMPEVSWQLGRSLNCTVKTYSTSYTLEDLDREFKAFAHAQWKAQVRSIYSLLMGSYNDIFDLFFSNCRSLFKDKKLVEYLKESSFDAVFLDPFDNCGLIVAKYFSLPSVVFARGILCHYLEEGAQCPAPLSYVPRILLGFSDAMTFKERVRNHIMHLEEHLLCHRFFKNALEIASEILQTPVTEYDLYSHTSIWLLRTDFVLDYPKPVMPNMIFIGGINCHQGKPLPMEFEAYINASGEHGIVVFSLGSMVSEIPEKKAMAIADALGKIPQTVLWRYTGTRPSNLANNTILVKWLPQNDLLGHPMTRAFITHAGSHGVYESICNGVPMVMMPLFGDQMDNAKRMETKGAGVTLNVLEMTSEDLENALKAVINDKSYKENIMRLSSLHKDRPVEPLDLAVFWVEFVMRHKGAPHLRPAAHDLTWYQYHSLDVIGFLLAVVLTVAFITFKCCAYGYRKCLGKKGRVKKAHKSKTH

Regarding `C[C@@H]1CCO[C@H]2Cn3cc(C(=O)NC(O)c4ccc(F)cc4F)c(=O)c(O)c3C(=O)N12` (some centres not stated), the Drug metabolism result in the data set on Liver microsome [1] was “metabolite_detected”. Further, the Drug excretion in data set [2] is 3%.

For the molecule `C[C@@H]1CCO[C@H]2Cn3cc(C(=O)NCc4ccc(F)cc4F)c(=O)c(O[C@@H]4O[C@H](C(=O)O)[C@@H](O)[C@H](O)[C@H]4O)c3C(=O)N12`, the Drug metabolism result (in [3]; with Hepatocyte; with Liver microsome [4]; in data set [5]; in data set [6]) was “metabolite_detected” each time. Moreover, in data set [2], the Drug excretion is listed as 18.9%.

Regarding `C[C@@H]1CCO[C@H]2Cn3cc(C(N)=O)c(=O)c(O)c3C(=O)N12`, at Cytochrome P450 3A4, the Drug metabolism result is “metabolite_detected”. Besides, in data set [2], the Drug excretion amounted to 3.6%.

B1: UDP-glucuronosyltransferase 1A1 (Homo sapiens) (protein)
chain: MAVESQGGRPLVLGLLLCVLGPVVSHAGKILLIPVDGSHWLSMLGAIQQLQQRGHEIVVLAPDASLYIRDGAFYTLKTYPVPFQREDVKESFVSLGHNVFENDSFLQRVIKTYKKIKKDSAMLLSGCSHLLHNKELMASLAESSFDVMLTDPFLPCSPIVAQYLSLPTVFFLHALPCSLEFEATQCPNPFSYVPRPLSSHSDHMTFLQRVKNMLIAFSQNFLCDVVYSPYATLASEFLQREVTVQDLLSSASVWLFRSDFVKDYPRPIMPNMVFVGGINCLHQNPLSQEFEAYINASGEHGIVVFSLGSMVSEIPEKKAMAIADALGKIPQTVLWRYTGTRPSNLANNTILVKWLPQNDLLGHPMTRAFITHAGSHGVYESICNGVPMVMMPLFGDQMDNAKRMETKGAGVTLNVLEMTSEDLENALKAVINDKSYKENIMRLSSLHKDRPVEPLDLAVFWVEFVMRHKGAPHLRPAAHDLTWYQYHSLDVIGFLLAVVLTVAFITFKCCAYGYRKCLGKKGRVKKAHKSKTH
Consider B1, for which the Km came out at 21 µM in [7] and 149 µM in [8].
